Read-outs that look alike come from different tables or passages of the source.

The values below come from patent publication US4278797A, “Intermediates to phenylmorphans and method of preparation thereof” (priority 1980, dated 1981).

For data set [1] the following is noted: compared with morphine or with 5-(3-hydroxyphenyl)-2-methylmorphan; literature; cited from earlier work.
The conditions of data set [2]: literature; cited from earlier work.
Another data set has as its system Rat tail jerk. The experiment in a line: rat-tail jerk assay (light beam or heat source applied to the tail). It is filed as in vivo. The settings on record: dose causing a two second delay in tail removal compared to control animals receiving no drug; for ED (2 s delay): Rattus norvegicus, sc, subcutaneous, read-out: Rat tail jerk subcutaneous injection ED2 seconds. As to the method: The phenylmorphan derivatives provided by this invention are useful as analgesics in the treatment of pain in animals suffering from pain and in need of treatment. […] One such test is the rat-tail jerk assay. In this test, a light beam or heat source is applied to the tail of a rat. The pain threshold of the animal is measured by the latency of the rat to remove its tail from the pain source. Column 2 in the following table presents the effective subcutaneous dose in mg/kg of a number of the compounds of this invention which causes a two second delay (ED2 sec) in tail removal compared to the control animals receiving no drug.

The test system of the next data set is Mouse writhing. The experiment in a line: mouse writhing test (intraperitoneal acetic acid). The note with it: dose reducing writhing by fifty percent; for ED50: Mus musculus. It is filed as in vivo, mice. From the text:
In another test designed to show analgesic activity, mice are given an intraperitaneal injection of acetic acid which causes the animals to writh. An effective analgesic is one that reduces the writhings. Column 3 of the following table presents the effective sucutaneous and oral doses in mg/kg of a compound of this invention required to reduce the writing in test animals by fifty percent (ED50).

Where [3] appears, read: sc, subcutaneous, read-out: Mouse writhing s.c. ED50.
The mark [4] stands for this setting: oral, read-out: Mouse writhing oral ED50.

For the compound `CN1CCC2(c3cccc(O)c3)CCCC1C2` (racemic) [racemic 5-(3-hydroxyphenyl)-2-methylmorphan, 5-(3-hydroxyphenyl)-2-methylmorphan], the analgesic potency entry in data set [1] is given as “nearly equivalent to that of morphine”.

Consider `CN1CCC2(c3cccc(O)c3)CCCC1C2` (single isomer, unassigned; (-)) [(-)-isomer of 5-(3-hydroxyphenyl)-2-methylmorphan, (-)-5-(3-hydroxyphenyl)-2-methylmorphan], for which the analgesic potency entry in data set [1] was “morphine-like potency”. The physical dependence capacity entry in data set [2] is reported as “no physical dependence capacity”.

In the case of `CC1CC2CC(c3cccc(O)c3)(C1)CC(C)N2C` (stereo not drawn) [2,3,7-Trimethyl-5-(3-hydroxyphenyl)morphan], the ED (2 s delay) in the data set on Rat tail jerk was found to be 0.5 mg/kg. For the same compound, the values for the ED50 with Mouse writhing (setting [3]) and in the data set on Mouse writhing (setting [4]) were 0.66 mg/kg and 14 mg/kg, respectively.

Take `COc1cccc(C23CC(C)CC(C2)N(C)C(C)C3)c1` (stereo not drawn) [2,3,7-Trimethyl-5-(3-methoxyphenyl)morphan]: in the data set with Rat tail jerk, the ED (2 s delay) is 20 mg/kg. The values for the ED50 with Mouse writhing (setting [3]) and in the data set with Mouse writhing (setting [4]) were 7.8 mg/kg and 22 mg/kg, respectively.

In the case of `CC1CC2(c3cccc(O)c3)CCCC(C2)N1C` (stereo not drawn) [2,3-dimethyl-5-(3-hydroxyphenyl)morphan, 2,3-Dimethyl-5-(3-hydroxyphenyl)morphan], the ED (2 s delay) in the data set with Rat tail jerk is 2 mg/kg. Moreover, the figures for the ED50 with Mouse writhing (setting [3]) and with Mouse writhing (setting [4]) were 2 mg/kg and 23 mg/kg, respectively.

Turning to `COc1cccc(C23CCCC(C2)N(C)C(C)C3)c1` (stereo not drawn) [2,3-dimethyl-5-(3-methoxyphenyl)morphan, 2,3-Dimethyl-5-(3-methoxyphenyl)morphan], the “Rat tail jerk subcutaneous injection ED2 seconds” value in the data set on Rat tail jerk worked out at 15.0 mg/kg. Moreover, the “Mouse writhing oral ED50” value in the data set on Mouse writhing (oral) is on record as 17.0 mg/kg. Also, the “Mouse writhing s.c. ED50” value in the data set on Mouse writhing (subcutaneous) came to 13.0 mg/kg.

As to `CC1CC2CC(c3cccc(O)c3)(CCN2C)C1` (stereo not drawn) [2,7-dimethyl-5-(3-hydroxyphenyl)morphan, 2,7-Dimethyl-5-(3-hydroxyphenyl)morphan], in the data set on Rat tail jerk, the ED (2 s delay) was 0.5 mg/kg. The ED50 with Mouse writhing (setting [3]) was determined as 0.72 mg/kg; in the data set on Mouse writhing (setting [4]), 28.5 mg/kg.

As for `COc1cccc(C23CCN(C)C(CC(C)C2)C3)c1` (stereo not drawn) [2,7-dimethyl-5-(3-methoxyphenyl)morphan, 2,7-Dimethyl-5-(3-methoxyphenyl)morphan], the ED (2 s delay) in the data set with Rat tail jerk was found to be 10 mg/kg. Besides, the figures for the ED50 in the data set on Mouse writhing (setting [3]) and in the data set with Mouse writhing (setting [4]) were 3.5 mg/kg and 28.5 mg/kg, respectively.

As to `CN1CCC2(c3cccc(O)c3)CCCC1C2` (stereo not drawn) [2-methyl-5-(3-hydroxyphenyl)-morphan, 2-Methyl-5-(3-hydroxyphenyl)morphan], in the data set with Rat tail jerk, the ED (2 s delay) was 1 mg/kg. For the same compound, the figures for the ED50 in the data set with Mouse writhing (setting [3]) and in the data set on Mouse writhing (setting [4]) were 1.3 mg/kg and 29 mg/kg, respectively.

As for `COc1cccc(C23CCCC(C2)N(C)CC3)c1` (stereo not drawn) [2-methyl-5-(3-methoxyphenyl)-morphan, 2-Methyl-5-(3-methoxyphenyl)morphan], in the data set with Rat tail jerk, the ED (2 s delay) turned out to be 10 mg/kg. For the same compound, the ED50 is 9.6 mg/kg with Mouse writhing (setting [3]) and 27.5 mg/kg in the data set on Mouse writhing (setting [4]).
